Measured values published in patent US12358879B2, “Heterocyclic compound” (Takeda Pharmaceutical Company Limited, priority 2019, dated 2025).

Tested on: Skin fibroblasts derived from FA patients (GM4078)
Test: RSL3-induced cell death inhibitory activity in skin fibroblasts derived from FA patients (ATP, CellTiter-Glo)
Format: cell-based, human
Settings: 3 μmol/l RSL3, 24 hours
Procedure: The effects of the compounds according to the present disclosure were evaluated according to the literature (M. G. Cotticelli et al, J Pharmacol Exp Ther 2019, 369, 47-54.).
Skin fibroblasts derived from FA patients (Coriell Institute for Medical Research, GM4078) were cultured in a culture medium consisting of DMEM (Thermo Fisher Scientific, 11995-065), 10% fetal bovine serum (Thermo Fisher Scientific, 26140-087), 1% GlutaMAX supplement (Thermo Fisher Scientific, 35050-061) and 1% Penicillin-Streptomycin solution (FUJIFILM Wako Pure Chemical Corporation, 168-23191).
For assay, the fibroblasts in the above culture medium were seeded in a 384-well plate at 1,500 cells per well, and the test compound and 3 μmol/l (final concentration) RSL3 were added to the plate the day after seeding. The concentration of the test compound added to the assay plate was 0.01, 0.1, 1 and 10 μmol/l as 4 points, and DMSO was added as a negative control for the test compound and RSL3. Twenty-four hours after the addition of RSL3/the test compound, CellTiter-Glo Luminescent Cell Viability Assay solution (Promega, G7573) was added to the plate to lyse the cells, and ATP was measured as an index of cell viability by detecting chemiluminescence with a plate reader.
RSL3-induced cell death inhibitory activity of the test compound=((X−C)/(T−C))×100 • X: ATP in the RSL3 addition/the test compound addition group, • C: ATP in the RSL3 addition/the test compound non-addition group, • T: ATP in the RSL3 non-addition/the test compound non-addition group

SMILES	RSL3-induced cell death inhibitory activity (%) at each compound concentration (μmol/l) (compound 0.01 μmol/l) [%]	RSL3-induced cell death inhibitory activity (%) at each compound concentration (μmol/l) (compound 0.1 μmol/l) [%]	RSL3-induced cell death inhibitory activity (%) at each compound concentration (μmol/l) (compound 1 μmol/l) [%]	RSL3-induced cell death inhibitory activity (%) at each compound concentration (μmol/l) (compound 10 μmol/l) [%]
Cn1nc(Nc2cccc3c2OCC3)c2ccc(C(C)(C)O)cc21 [Example 2, 2-{3-[(2,3-dihydro-1-benzofuran-7-yl)amino]-1-methyl-1H-indazol-6-yl}propan-2-ol]	4.7	71.7	95.4	83.5
COc1nn(C)cc1Nc1nn(C(C)C)c2cc(C(C)(C)O)ccc12 [Example 39, 2-{3-[(3-methoxy-1-methyl-1H-pyrazol-4-yl)amino]-1-(propan-2-yl)-1H-indazol-6-yl}propan-2-ol]	58.0	66.4	83.0	93.2
COCc1nn(C)cc1Nc1nn(C2CCC2)c2ccc(C(C)(C)O)cc12 [Example 88, 2-(1-cyclobutyl-3-{[3-(methoxymethyl)-1-methyl-1H-pyrazol-4-yl]amino}-1H-indazol-5-yl)propan-2-ol]	13.6	61.2	73.0	72.7
COc1nn(C)cc1Nc1nn(CC2CC2)c2cc(C(C)(C)O)ccc12 [Example 49, 2-{1-(cyclopropylmethyl)-3-[(3-methoxy-1-methyl-1H-pyrazol-4-yl)amino]-1H-indazol-6-yl}propan-2-ol]	37.8	64.9	96.5	93.0
Cn1nc(Nc2cnn3c2CCCC3)c2ccc(C(C)(C)O)cc21 [Example 19, 2-{1-methyl-3-[(4,5,6,7-tetrahydropyrazolo[1,5-a]pyridin-3-yl)amino]-1H-indazol-6-yl}propan-2-ol]	11.1	32.1	58.9	78.9
COCc1nn(C)cc1Nc1nn(C(C)C)c2cc(C(C)(C)O)ccc12 [Example 85, 2-[3-{[3-(methoxymethyl)-1-methyl-1H-pyrazol-4-yl]amino}-1-(propan-2-yl)-1H-indazol-6-yl]propan-2-ol]	11.4	43.2	68.4	72.6
COc1cc(-c2cnn(C)c2)ccc1Nc1n[nH]c2cc(C(C)(C)O)ccc12 [Example 12, 2-{3-[2-methoxy-4-(1-methyl-1H-pyrazol-4-yl)anilino]-1H-indazol-6-yl}propan-2-ol]	33.2	57.8	79.9	85.9
Cn1cc(Nc2nn(C)c3cc(C(C)(C)O)ccc23)c(C(F)(F)F)n1 [Example 5, 2-(1-methyl-3-{[1-methyl-3-(trifluoromethyl)-1H-pyrazol-4-yl]amino}-1H-indazol-6-yl)propan-2-ol]	27.8	53.9	84.5	82.7
COc1c(Nc2nn(C)c3cc(C(C)(C)O)cc(F)c23)cnn1CC(C)C [Example 44, 2-(4-fluoro-3-{[5-methoxy-1-(2-methylpropyl)-1H-pyrazol-4-yl]amino}-1-methyl-1H-indazol-6-yl)propan-2-ol]	38.3	61.3	78.4	95.0
Cn1nc(NC2CCCCC2)c2cc(C(C)(C)O)ccc21 [Example 59, 2-[3-(cyclohexylamino)-1-methyl-1H-indazol-5-yl]propan-2-ol]	48.0	65.9	93.3	95.9
COc1nn(C)cc1Nc1nn(C)c2ccc(C(C)(C)O)cc12 [Example 41, 2-{3-[(3-methoxy-1-methyl-1H-pyrazol-4-yl)amino]-1-methyl-1H-indazol-5-yl}propan-2-ol]	21.3	40.8	58.1	71.7
COCc1nn(C)cc1Nc1nn(C2CCC2)c2cc(C(C)(C)O)ccc12 [Example 82, 2-(1-cyclobutyl-3-{[3-(methoxymethyl)-1-methyl-1H-pyrazol-4-yl]amino}-1H-indazol-6-yl)propan-2-ol]	1.9	41.6	64.0	73.8
Cn1ncc(Nc2nn(C)c3cc(C(C)(C)O)ccc23)c1C(F)(F)F [Example 9, 2-(1-methyl-3-{[1-methyl-5-(trifluoromethyl)-1H-pyrazol-4-yl]amino}-1H-indazol-6-yl)propan-2-ol]	30.0	61.8	96.1	84.6
COc1nn(C)cc1Nc1nn(C2CCC2)c2ccc(C(C)(C)O)cc12 [Example 70, 2-{1-cyclobutyl-3-[(3-methoxy-1-methyl-1H-pyrazol-4-yl)amino]-1H-indazol-5-yl}propan-2-ol]	12.1	86.1	89.2	82.2
COCc1nn(C)cc1Nc1nn(CC2CC2)c2cc(C(C)(C)O)ccc12 [Example 84, 2-[1-(cyclopropylmethyl)-3-{[3-(methoxymethyl)-1-methyl-1H-pyrazol-4-yl]amino}-1H-indazol-6-yl]propan-2-ol]	12.4	47.5	75.7	73.8
COc1nn(C)cc1Nc1nn(CC2CC2(F)F)c2cc(C(C)(C)O)ccc12 (stereo not drawn) [Example 77, 2-{1-[(2,2-difluorocyclopropyl)methyl]-3-[(3-methoxy-1-methyl-1H-pyrazol-4-yl)amino]-1H-indazol-6-yl}propan-2-ol]	17.7	46.4	76.2	77.1
Cn1nc(Nc2cnn3c2OCCC3)c2cc(F)c(C(C)(C)O)cc21 [Example 56, 2-{3-[(6,7-dihydro-5H-pyrazolo[5,1-b][1,3]oxazin-3-yl)amino]-5-fluoro-1-methyl-1H-indazol-6-yl}propan-2-ol]	47.4	69.3	94.2	90.3
CCn1nc(Nc2cn(C)nc2OC)c2ccc(C(C)(C)O)cc21 [Example 36, 2-{1-ethyl-3-[(3-methoxy-1-methyl-1H-pyrazol-4-yl)amino]-1H-indazol-6-yl}propan-2-ol]	14.0	28.5	55.8	86.0
